Laboratory results taken from publication PMC10609152, “Synthesis, Computational, and Anticancer In Vitro Investigations of Aminobenzylnaphthols Derived from 2-Naphtol, Benzaldehydes, and α-Aminoacids via the Betti Reaction” (Molecules, 2023).
Where two headings read alike, the source gives them in different places.

Assays:
BxPC-3 cells [1] = assay: MTT assay, BxPC-3; type: cell-based; details: Homo sapiens
From the text: (§1) The MTT assay, also known as the 3-(4,5-dimethylthiazol-2-yl)-2,5-diphenyltetrazolium bromide assay, is a colorimetric assay used in biological and biomedical research to determine cell viability and proliferation. The MTT assay works on the assumption that live cells with active metabolism convert MTT into formazan crystals. These crystals are insoluble; however, they can be dissolved in an organic solvent such as DMSO to produce a colorful solution. The color intensity is proportional to the number of viable cells present in the culture.
(§2) BxPC-3, HT-29, and WI-38 cells were seeded on 96-well plates at a density of approximately 8–10 × 10^3 cells per 100 µL medium/well. Cells were allowed to grow for 24 h in controlled conditions (37 °C; 5% CO2). […] The experimental design included nontreated controls and blanks (wells without cells). Following 24 or 72 h of culture with the investigated compounds, 20 μL of MTT tetrazolium salt (5 mg/mL in PBS) was added to each well, and the plates were incubated for 3 h in a humidified environment (37 °C; 5% CO2). The solutions were withdrawn after incubation, and 100 μL of DMSO was added to dissolve the formazan complexes. Afterward, a spectrophotometer (microplate reader Power Wave XS BioTek Instruments, Inc., Winooski, VT, USA) reading at 570 nm was conducted. The experiments were carried out in duplicates.
(§3) GraphPad Prism 7 software was used to calculate the concentration of an MMZ compound reflecting a 50% growth inhibition (IC50). IC50 is defined as a concentration of tested compound that leads to a reduction in cell pool viability by 50% compared to the negative control (accepted as 100%). % cell viability=Absorbance value of treated cells−Absorbance value of blank/(Absorbance value of untreated cells−Absorbance value of blank)×100%

HT-29 cells [2] = assay: MTT assay, HT-29; type: cell-based; details: Homo sapiens
From the text: as §1, §2, §3

BxPC-3 cells [3] = assay: AO/EB double staining, BxPC-3; type: cell-based; details: BxPC-3, IC50 concentration, 72 h
Procedure: (§4) BxPC-3 and HT-29 cells were plated at a density of 5 × 10^4 cells per well in 12-well plates. After 24 h, the cells were treated with MMZ-45AA and MMZ-140C at concentrations corresponding to their IC50 values obtained from the MTT assay. The cells were exposed to the compounds for 72 h. Following the incubation period, the cells were treated with a mixture of fluorochromes (100 µM AO/EB in a 1:1 ratio, v/v) for 5 min at 37 °C in the absence of light.
(§5) The staining technique allowed for the differentiation of viable, apoptotic, and necrotic cells based on their varying uptake of fluorescent DNA-binding dyes and the degree of chromatin condensation in the stained nuclei. A fluorescence microscope (Olympus BX60 F5, Olympus Optical Co., Ltd., Nagano, Japan) with an excitation wavelength of 360 nm was used to analyze the cells. The results were obtained from three independent experiments.

HT-29 cells [4] = assay: AO/EB double staining, HT-29; type: cell-based; details: HT-29, IC50 concentration, 72 h
Procedure: as §4, §5

BxPC-3 cells [5] = assay: Annexin V-FITC/PI flow cytometry, BxPC-3; type: cell-based; details: Annexin V-FITC, BxPC-3, IC50 concentration, 72 h
Procedure: (§6) The Annexin V-FITC Apoptosis Detection Kit was utilized to assess the induction of apoptosis following 72 h incubation with the tested MMZ compounds. BxPC-3 and HT-29 cells were plated at a density of 4 × 10^5 cells in 6-well plates. After 24 h, the cells were exposed to IC50 concentrations of MMZ-45AA and […], determined in the MTT assay. The experimental setup included a vehicle control with a final solvent concentration of less than 0.5% v/v DMSO, and cells treated with 2 µM SN-38 (the active metabolite of irinotecan) as a positive control. The cells were then incubated for an additional 72 h at 37 °C with 5% CO2.
(§7) Following the exposure period, the cells were trypsinized, transferred to cytometric tubes, and allowed to incubate for 40 min. Subsequently, they were centrifuged at 1400 rpm for 10 min at 4 °C. The supernatant was then removed, and the cell pellet was diluted in 1 mL PBS. The remaining steps were carried out according to the instructions provided by the manufacturer of the Annexin V-FITC Apoptosis Detection Kit. The results reported in this study were obtained from three independent experiments

HT-29 cells [6] = assay: Annexin V-FITC/PI flow cytometry, HT-29; type: cell-based; details: Annexin V-FITC, HT-29, IC50 concentration, 72 h
Procedure: as §6, §7

[7] = MTT cell viability, WI-38 normal fibroblasts; type: cell-based; details: human, WI-38 normal fibroblast cells, read-out: % cell viability ± SD; for viability at 72 h: WI-38, 72 h
Procedure: as §2, §3

A549 = system: A549; set-up: method as in doi:10.31083/j.jmcm.2019.02.7181; details: cited from earlier work
HBL100 = system: HBL100; set-up: method as in doi:10.31083/j.jmcm.2019.02.7181; details: cited from earlier work
HeLa = system: HeLa; set-up: method as in doi:10.31083/j.jmcm.2019.02.7181; details: cited from earlier work
SW1573 = system: SW1573; set-up: method as in doi:10.31083/j.jmcm.2019.02.7181; details: cited from earlier work
T47D = system: T47D; set-up: method as in doi:10.31083/j.jmcm.2019.02.7181; details: cited from earlier work
[8] = BxPC-3, 24-h MTT, independent experiment 1, read-out: IC50(1)
[9] = BxPC-3, 24-h MTT, independent experiment 2, read-out: IC50(2)
[10] = BxPC-3, 24-h MTT, read-out: Mean IC50 ± SD
[11] = BxPC-3, 72-h MTT, independent experiment 1, read-out: IC50(1)
[12] = BxPC-3, 72-h MTT, independent experiment 2, read-out: IC50(2)
[13] = BxPC-3, 72-h MTT, read-out: Mean IC50 ± SD
[14] = HT-29, 24-h MTT, independent experiment 1, read-out: IC50(1)
[15] = HT-29, 24-h MTT, independent experiment 2, read-out: IC50(2)
[16] = HT-29, 24-h MTT, read-out: Mean IC50 ± SD
[17] = HT-29, 72-h MTT, independent experiment 1, read-out: IC50(1)
[18] = HT-29, 72-h MTT, independent experiment 2, read-out: IC50(2)
[19] = HT-29, 72-h MTT, read-out: Mean IC50 ± SD

Row | SMILES | IC50 (BxPC-3 cells [1]; [8]) | IC50 (BxPC-3 cells [1]; [9]) | IC50 (BxPC-3 cells [1]; [10]) | IC50 (BxPC-3 cells [1]; [11]) | IC50 (BxPC-3 cells [1]; [12]) | IC50 (BxPC-3 cells [1]; [13]) | IC50 (HT-29 cells [2]; [14]) | IC50 (HT-29 cells [2]; [15]) | IC50 (HT-29 cells [2]; [16]) | IC50 (HT-29 cells [2]; [17]) | IC50 (HT-29 cells [2]; [18]) | IC50 (HT-29 cells [2]; [19]) | % of apoptotic cells (BxPC-3 cells [3]) | % of apoptotic cells (HT-29 cells [4]) | % of apoptotic cells (BxPC-3 cells [5]) | % of apoptotic cells (HT-29 cells [6]) | GI50 (A549) | other results
1 | COC(=O)[C@H](Cc1ccccc1)N[C@@H](c1ccccc1)c1c(O)ccc2ccccc12 (mixture of isomers) [MMZ-45AA, (S,S) and (R,R)-methyl ((2-hydroxynaphthalen-1-yl)(phenyl)methyl)-L-phenylalaninate] | 58.1 µM | 38 µM | 48 ± 14.2 µM | 12.1 µM | 14.4 µM | 13.3 µM | 40.3 µM | 48.1 µM | 44.2 ± 5.49 µM | 12.2 µM | 11.9 µM | 12.1 ± 0.247 µM | 21.9 ± 3.4% | 15.93 ± 3% | 38.7 ± 5.43% | 24.23 ± 1.1% | – | –
2 | COC(=O)[C@@H]1CCCN1[C@@H](c1ccccc1)c1c(O)ccc2ccccc12 (mixture of isomers) [MMZ-140C, (S,S) and (R,R)-methyl ((2-hydroxynaphthalen-1-yl)(phenyl)methyl)-L-prolinate] | 23.5 µM | 36.8 µM | 30.2 ± 9.39 µM | 31.7 µM | 33.2 µM | 32.4 ± 1.09 µM | 35.5 µM | 40 µM | 37.8 ± 3.2 µM | 9.01 µM | 14.1 µM | 11.6 µM | No statistically significant changes | 11.73 ± 0.38% | 33.1 ± 1.12% | 15.13 ± 1% | – | viability at 24 h ([7]; WI-38, 24 h, compound at IC50 concentration obtained for HT-29 cells): 82.9 ± 2.06%; viability at 72 h ([7]; compound at IC50 concentration estimated for BxPC-3 cells): 82.3 ± 6.96%; viability at 72 h ([7]; compound at IC50 concentration obtained for HT-29 cells): 84.2 ± 2.56%
3 | N.N.[Cl][Pt][Cl] [cisplatin] | – | – | – | – | – | – | – | – | – | – | – | – | – | – | – | – | 4.9 µM | –
4 | Brc1ccc(C(c2cccc3ccccc23)N2CCCC2)cc1 (centres unmarked) [compound 14j] | – | – | – | – | – | – | – | – | – | – | – | – | – | – | – | – | 7.9 µM | –
5 | N#Cc1ccc(C(NCc2ccccc2)c2cccc3ccccc23)cc1 (centres unmarked) [compound 14t] | – | – | – | – | – | – | – | – | – | – | – | – | – | – | – | – | – | GI50 (HBL100): 5 µM; GI50 (HeLa): 4.1 µM; GI50 (SW1573): 6.3 µM; GI50 (T47D): 8.4 µM
